Measurements taken from ChEMBL document CHEMBL5233273, “An overview of hydroxypyranone and hydroxypyridinone as privileged scaffolds for novel drug discovery” (Eur J Med Chem, 2021).
≈ marks a conversion by molar mass, not a printed value.

Assays:
Tyrosinase = biological target: T1, Tyrosinase (Agaricus bisporus, UniProt O42713); assay: Inhibition of mushroom tyrosinase
T1 sequence (O42713 whole entry): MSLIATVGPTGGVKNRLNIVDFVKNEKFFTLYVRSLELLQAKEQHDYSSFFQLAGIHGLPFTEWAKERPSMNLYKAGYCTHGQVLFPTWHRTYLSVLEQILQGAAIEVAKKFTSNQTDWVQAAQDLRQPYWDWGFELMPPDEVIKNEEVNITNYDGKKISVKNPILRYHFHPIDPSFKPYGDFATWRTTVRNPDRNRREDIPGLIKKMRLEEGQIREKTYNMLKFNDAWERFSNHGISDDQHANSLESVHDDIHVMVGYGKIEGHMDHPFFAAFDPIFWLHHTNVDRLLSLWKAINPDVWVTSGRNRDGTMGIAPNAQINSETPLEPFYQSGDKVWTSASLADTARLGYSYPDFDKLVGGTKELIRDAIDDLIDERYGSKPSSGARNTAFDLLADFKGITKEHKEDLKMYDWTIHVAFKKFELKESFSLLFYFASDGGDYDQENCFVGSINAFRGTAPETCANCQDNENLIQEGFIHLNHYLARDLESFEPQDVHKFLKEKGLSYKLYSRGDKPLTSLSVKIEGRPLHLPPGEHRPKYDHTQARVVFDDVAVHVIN

Candida albicans = assay: Antifungal activity against Candida albicans ATCC 90028; assay type: functional
[1] = test system: Mycolicibacterium smegmatis; assay: Antimycobacterial activity against Mycobacterium smegmatis; assay type: functional

O=c1cc(Cn2cc(COc3ccc([N+](=O)[O-])cc3)nn2)occ1O
IC50 (Tyrosinase): 60 nM

COc1ccccc1N1CCN(Cc2oc(C)cc(=O)c2O)CC1
MIC (Candida albicans): 64 µg/mL (≈ 194 µM)

Cc1cc(=O)c(O)c(CN2CCCCC2)o1
MIC [1]: 8 µg/mL (≈ 35.8 µM)

COc1cccc(N2CCN(Cc3oc(C)cc(=O)c3O)CC2)c1
MIC (Candida albicans): 64 µg/mL (≈ 194 µM)

O=c1cc(Cn2cc(COc3ccc(Br)cc3)nn2)occ1O
IC50 (Tyrosinase): 60 nM

CCC1CCC(C)N(Cc2oc(C)cc(=O)c2O)C1 (stereo unspecified)
MIC [1]: 8 µg/mL (≈ 30.1 µM)

N#Cc1ccc(OCc2cn(Cc3cc(=O)c(O)co3)nn2)cc1
IC50 (Tyrosinase): 60 nM

O=c1cc(Cn2cc(COc3cccc(Cl)c3)nn2)occ1O
IC50 (Tyrosinase): 60 nM

Cc1cc(=O)c(O)c(CN2CCC(C)CC2)o1
MIC [1]: 8 µg/mL (≈ 33.7 µM)

Cc1cc(=O)c(O)c(CN2CCN(c3ccccc3F)CC2)o1
MIC (Candida albicans): 64 µg/mL (≈ 201 µM)

Cc1cc(=O)c(O)c(CN2CCC(CO)CC2)o1
MIC [1]: 8 µg/mL (≈ 31.6 µM)

Cc1cc(=O)c(O)c(CN2CCC(N3CCOCC3)CC2)o1
MIC [1]: 8 µg/mL (≈ 25.9 µM)

Cc1cc(=O)c(O)c(CN2CCN(c3ccccn3)CC2)o1
MIC (Candida albicans): 64 µg/mL (≈ 212 µM)

COc1ccc(OCc2cn(Cc3cc(=O)c(O)co3)nn2)cc1
IC50 (Tyrosinase): 60 nM

O=c1cc(Cn2cc(COc3cccc(F)c3)nn2)occ1O
IC50 (Tyrosinase): 60 nM

O=c1cc(Cn2cc(COc3ccc(Cl)cc3)nn2)occ1O
IC50 (Tyrosinase): 60 nM

CCCC1CCN(Cc2oc(C)cc(=O)c2O)CC1
MIC [1]: 8 µg/mL (≈ 30.1 µM)

Nn1c(SCc2cc(=O)c(O)co2)nnc1-c1ccc(Cl)cc1
IC50 (Tyrosinase): 4500 nM

Cc1cc(=O)c(O)c(CN2CCN(c3ccc(F)cc3)CC2)o1
MIC (Candida albicans): 64 µg/mL (≈ 201 µM)

Cc1cc(=O)c(O)c(CN2CCN(c3ccc(Cl)cc3)CC2)o1
MIC (Candida albicans): 64 µg/mL (≈ 191 µM)

Cc1cc(=O)c(O)c(CN2CCC(Cc3ccccc3)CC2)o1
MIC [1]: 8 µg/mL (≈ 25.5 µM)

Cc1cc(=O)c(O)c(CN2CCC(c3ccccc3)CC2)o1
MIC [1]: 8 µg/mL (≈ 26.7 µM)

O=c1cc(Cn2cc(COc3ccc(F)cc3)nn2)occ1O
IC50 (Tyrosinase): 60 nM

Cc1cc(=O)c(O)c(CN2CCN(c3ccccc3)CC2)o1
MIC (Candida albicans): 64 µg/mL (≈ 213 µM)

COc1cc(OCc2cn(Cc3cc(=O)c(O)co3)nn2)cc(OC)c1OC
IC50 (Tyrosinase): 60 nM

Cc1cc(=O)c(O)c(CN2C(C)CCCC2C)o1 (stereo unspecified)
MIC [1]: 8 µg/mL (≈ 31.8 µM)

Cc1cc(=O)c(O)c(CN2CCN(Cc3ccccc3)CC2)o1
MIC (Candida albicans): 64 µg/mL (≈ 204 µM)

CC(=O)Nc1ccc(OCc2cn(Cc3cc(=O)c(O)co3)nn2)cc1
IC50 (Tyrosinase): 60 nM

COc1cc(OC)cc(OCc2cn(Cc3cc(=O)c(O)co3)nn2)c1
IC50 (Tyrosinase): 60 nM

Cc1cc(=O)c(O)c(CN2CCN(c3ccc([N+](=O)[O-])cc3)CC2)o1
MIC (Candida albicans): 64 µg/mL (≈ 185 µM)

Cc1cc(=O)c(O)c(CN2CCCC(O)C2)o1 (stereo unspecified)
MIC [1]: 8 µg/mL (≈ 33.4 µM)

CC(=O)c1ccc(N2CCN(Cc3oc(C)cc(=O)c3O)CC2)cc1
MIC (Candida albicans): 64 µg/mL (≈ 187 µM)

Cc1cc(=O)c(O)c(CN2CCN(Cc3ccc4c(c3)OCO4)CC2)o1
MIC (Candida albicans): 64 µg/mL (≈ 179 µM)

O=c1cc(CSc2ccc(O)cc2)occ1O
IC50 (Tyrosinase): 540 nM

CCOC(=O)C1CCN(Cc2oc(C)cc(=O)c2O)CC1
MIC [1]: 8 µg/mL (≈ 27.1 µM)

O=c1cc(Cn2cc(COc3ccc(CO)cc3)nn2)occ1O
IC50 (Tyrosinase): 60 nM

Cc1cc(=O)c(O)c(CN2CCC(c3ccc(O)cc3)CC2)o1
MIC [1]: 8 µg/mL (≈ 25.4 µM)

Cc1cc(=O)c(O)c(CN2CCN(c3ccccc3Cl)CC2)o1
MIC (Candida albicans): 64 µg/mL (≈ 191 µM)

O=C(OCc1cc(=O)c(O)co1)c1ccc2c(c1)OCCO2
IC50 (Tyrosinase): 1520 nM

Cc1cc(=O)c(O)c(CN2CC(C)CC(C)C2)o1 (stereo unspecified)
MIC [1]: 8 µg/mL (≈ 31.8 µM)

O=C(/C=C/c1ccc2c(c1)OCCO2)OCc1cc(=O)c(O)co1
IC50 (Tyrosinase): 1520 nM

Cc1cc(=O)c(O)c(CN2CCCC(C)C2)o1 (stereo unspecified)
MIC [1]: 8 µg/mL (≈ 33.7 µM)

CCCC1CCCCN1Cc1oc(C)cc(=O)c1O (stereo unspecified)
MIC [1]: 8 µg/mL (≈ 30.1 µM)

Cc1cc(=O)c(O)c(CN2CCC(O)CC2)o1
MIC [1]: 8 µg/mL (≈ 33.4 µM)

O=c1cc(Cn2cc(COc3ccc(Cl)cc3Cl)nn2)occ1O
IC50 (Tyrosinase): 60 nM

O=c1cc(Cn2cc(COc3ccccc3)nn2)occ1O
IC50 (Tyrosinase): 60 nM

Cc1cc(=O)c(O)c(CN2CCCC(CO)C2)o1 (stereo unspecified)
MIC [1]: 8 µg/mL (≈ 31.6 µM)

O=C(OCc1cc(=O)c(O)co1)c1ccc2c(c1)OCO2
IC50 (Tyrosinase): 1520 nM

Cc1cc(=O)c(O)c(CN2CCCCC2C)o1 (stereo unspecified)
MIC [1]: 8 µg/mL (≈ 33.7 µM)

Cc1cc(=O)c(O)c(CN2CCN(c3cccc(C(F)(F)F)c3)CC2)o1
MIC (Candida albicans): 64 µg/mL (≈ 174 µM)

Cc1cc(=O)c(O)c(CN2CCC(c3ccccn3)CC2)o1
MIC [1]: 8 µg/mL (≈ 26.6 µM)
